Source: ChEMBL document CHEMBL4406882, “The plant-derived chalcone Xanthoangelol targets the membrane of Gram-positive bacteria” (Bioorg Med Chem, 2019)
The source made the active and inactive calls.

Tests used:
[1] = test system: Staphylococcus aureus; experiment: Antibacterial activity against mid-exponential growth phase of methicillin-resistant Staphylococcus aureus ATCC 700699 assessed as increase in cell lysis at 25 uM; assay type: functional, organism-based
[2] = test system: Staphylococcus aureus; experiment: Bactericidal activity against methicillin-resistant Staphylococcus aureus ATCC 700699 assessed as reduction in bacterial CFU at 4 times MIC measured for 30 mins; assay type: functional
[3] = test system: Staphylococcus aureus; experiment: Induction of membrane integrity impairment in methicillin-resistant Staphylococcus aureus ATCC 700699 at 10 uM measured for 3 hrs by PI staining based fluorescence assay; assay type: functional, organism-based
[4] = test system: Staphylococcus aureus; experiment: Induction of membrane integrity impairment in methicillin-resistant Staphylococcus aureus ATCC 700699 at 20 uM measured for 30 mins by DiOC2(3) probe based fluorescence assay; assay type: functional, organism-based

Measured: Activity

COc1c(N2C[C@@H]3CCCN[C@@H]3C2)c(F)cc2c(=O)c(C(=O)O)cn(C3CC3)c12
inactive: all assays above
